Values quoted from earlier work, collected in US8282955B2, “Method for the preparation of a pharmaceutical composition comprising 5-aminosalicylic acid for use in treatment of ulcerative colitis and Crohn's disease” (Ferring B.V., priority 2001, dated 2012).

Settings: moisture and light

- Stability: poor stability
SMILES: Nc1ccc(O)c(C(=O)O)c1 [Batch 5-ASA, 5-aminosalicylic acid]
